# Assay results from PubChem BioAssay (NCI).
# Where “and” joins values, the source holds several entries; their conditions need not be identical. Equal entries are not always repeated.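 Cells were grown in 96-well plates and exposed to each compound for 48 hours at five concentrations; endpoints were interpolated linearly between bracketing concentrations, or set to the highest concentration if not reached. GI50 is the concentration that inhibits growth by half. At the TGI there is no net growth.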
# How the values were obtained:
# Experiment in all cases: DTP human tumour cell line panel, 48 h
# HCT-116 colon = system: HCT-116 colon
# MCF7 breast = system: MCF7 breast
# UO-31 renal = system: UO-31 renal
# HL-60(TB) leukemia = system: HL-60(TB) leukemia
# 786-0 renal = system: 786-0 renal
# HT29 colon = system: HT29 colon
# OVCAR-4 ovarian = system: OVCAR-4 ovarian
# SK-OV-3 ovarian = system: SK-OV-3 ovarian
# OVCAR-5 ovarian = system: OVCAR-5 ovarian
# U251 CNS = system: U251 CNS
Compound,TGI (HCT-116 colon),TGI (MCF7 breast),TGI (UO-31 renal),TGI (HL-60(TB) leukemia),TGI (786-0 renal),TGI (HT29 colon),TGI (OVCAR-4 ovarian),TGI (SK-OV-3 ovarian),GI50 (OVCAR-5 ovarian),TGI (OVCAR-5 ovarian),GI50 (HCT-116 colon),GI50 (MCF7 breast),GI50 (UO-31 renal),GI50 (HL-60(TB) leukemia),GI50 (786-0 renal),GI50 (HT29 colon),GI50 (U251 CNS),TGI (U251 CNS),GI50 (OVCAR-4 ovarian),GI50 (SK-OV-3 ovarian)
O=C(O)CSC1=NNC2(C(=O)N1)c1ccccc1-c1ccccc12,> 10 µM,> 10 µM,> 10 µM,> 10 µM,> 10 µM,> 10 µM,> 10 µM,> 10 µM,–,–,–,–,–,–,–,–,–,–,–,–
Cc1nc(NS(=O)(=O)c2ccc(NCN3C(=O)c4ccccc4C3=O)cc2)oc1C,> 100 µM,> 100 µM,> 100 µM,> 100 µM,> 100 µM,> 100 µM,> 100 µM,> 100 µM,> 100 µM,> 100 µM,> 100 µM,> 100 µM,> 100 µM,> 100 µM,> 100 µM,> 100 µM,> 100 µM,> 100 µM,> 100 µM,> 100 µM
COC(=O)c1onc(C2OC(C)(C)OC2C(O)COC(c2ccccc2)(c2ccccc2)c2ccccc2)c1C(=O)OC (stereo unspecified),> 100 µM,> 100 µM,> 100 µM,> 100 µM,> 100 µM,> 100 µM,> 100 µM,–,–,> 100 µM,–,–,–,–,–,–,–,> 100 µM,–,–
COc1c(OC)c(OC)c2c(=O)cc(-c3ccc(OC(C)C)cc3)oc2c1OC,23.6 µM,35.8 µM,> 47.3 µM,13 µM,> 49.3 µM,> 49.4 µM,> 49.2 µM,> 50.5 µM,–,> 51.9 µM,–,–,–,–,–,–,–,> 52 µM,–,–
COc1cc(F)c(F)cc1C(=O)c1cnc(NC2CCN(S(C)(=O)=O)CC2)nc1N,> 25 µM,> 25 µM,> 19.8 µM,10 µM,> 25 µM,> 25 µM,> 25 µM,> 25 µM,2.62 µM,> 23.1 µM,2.16 µM,0.76 µM,4.75 µM,2.01 µM,5.93 µM,3.7 µM,2.42 µM,24.8 µM,6.4 µM,10 µM
O=C1CC(c2cccc(Cl)c2)Oc2ccccc21 (stereo unspecified),31.3 µM,39.4 µM,27.6 µM,57.1 µM,39.5 µM,33.3 µM,94.1 µM,46 µM,–,–,–,–,–,–,–,–,–,> 100 µM,–,–
COc1cc(Cl)c(CC(=O)c2c[nH]c3ccccc23)cc1OC,> 100 µM,> 100 µM,> 43.3 µM,> 67.3 µM,> 100 µM,> 100 µM,> 100 µM,40 µM,–,> 100 µM,–,–,–,–,–,–,–,44.4 µM,–,–
C1CSC[C@H]2COC[C@@H](CSCCS1)S2,> 100 µM,> 100 µM,> 100 µM,> 100 µM,> 100 µM,> 100 µM,> 100 µM,–,–,> 100 µM,–,–,–,–,–,–,–,> 100 µM,–,–
O=C1NC(=O)C(c2cccc(Cl)c2)=C1Nc1ccc(Cl)c(C(=O)O)c1,> 25 µM,> 25 µM,> 25 µM,> 25 µM,> 25 µM,> 25 µM,> 25 µM,> 25 µM,> 25 µM,> 25 µM,> 25 µM,> 25 µM,> 25 µM,> 25 µM,> 25 µM,> 25 µM,> 25 µM,> 25 µM,> 25 µM,> 25 µM
CN(C)C=N[C@@H](C(=O)O)c1ccccc1,> 100 µM,> 100 µM,> 100 µM,> 100 µM,> 100 µM,> 100 µM,> 100 µM,> 100 µM,–,> 100 µM,–,–,–,–,–,–,–,> 100 µM,–,–
N#C/C(=C/N1CCN(C(=O)c2ccco2)C1=S)C(=O)Nc1ccc(Cl)cc1,> 50 µM,> 50 µM,26.6 µM,28.7 µM,> 50 µM,> 50 µM,> 50 µM,> 50 µM,–,–,15.2 µM,21 µM,12 µM,10.5 µM,17.4 µM,21.4 µM,17.3 µM,> 50 µM,25.2 µM,41.2 µM
COc1cc(/C=C/C(=O)CC(=O)/C=C/c2cc(OC)c(O)c(OC)c2)cc(OC)c1O,13.3 µM and > 100 µM,25 µM and > 100 µM,> 100 µM,25 µM and 42.6 µM,25 µM and > 100 µM,25 µM and > 100 µM,25 µM and > 100 µM,24 µM and > 100 µM,27.1 µM,25 µM and 83.5 µM,17.2 µM,19.6 µM,41.2 µM,–,38.6 µM,26.3 µM,–,25 µM and 36.1 µM,29.5 µM,32 µM
CCCCCCCCCCCNC=O,> 100 µM,> 100 µM,> 100 µM,39.7 µM,> 100 µM,> 100 µM,> 100 µM,> 100 µM,–,> 100 µM,–,–,–,–,–,–,–,> 100 µM,–,–
O=C1OCC2=C1C(c1cccc(C(F)(F)F)c1)c1cc3c(cc1N2CCO)OCCO3 (stereo unspecified),> 33.3 µM,> 33.3 µM,> 33.3 µM,2.44 µM,> 33.3 µM,> 33.3 µM,> 33.3 µM,> 33.3 µM,1.75 µM,> 33.3 µM,1.42 µM,1.09 µM,1.95 µM,0.875 µM,1.81 µM,1.09 µM,1.36 µM,> 33.3 µM,6.41 µM,1.29 µM
COc1cc(C)cc(C(=O)/C=C/c2ccccc2)c1O,34.9 µM,49 µM,32.4 µM,> 100 µM,37.3 µM,34.7 µM,45.9 µM,83.5 µM,–,34.9 µM,–,–,–,–,–,–,–,35.6 µM,–,–
CC(C)[P+](c1ccccc1)(c1ccccc1)c1ccccc1,> 100 µM,> 100 µM,> 100 µM,7.5 µM,> 100 µM,> 100 µM,94.6 µM,> 100 µM,28.5 µM,> 100 µM,3.94 µM,3.69 µM,> 100 µM,2.24 µM,32.5 µM,5.8 µM,4.11 µM,> 100 µM,3.7 µM,22.4 µM
COC1=C(OC)C(=O)C(C/C=C(\C)CC/C=C(\C)CC/C=C(\C)CC/C=C(\C)CC/C=C(\C)CC/C=C(\C)CC/C=C(\C)CC/C=C(\C)CC/C=C(\C)CCC=C(C)C)=C(C)C1=O,> 100 µM,> 100 µM,> 100 µM,> 100 µM,> 100 µM,> 100 µM,> 100 µM,> 100 µM,> 100 µM,> 100 µM,> 100 µM,> 100 µM,> 100 µM,> 100 µM,> 100 µM,> 100 µM,> 100 µM,> 100 µM,> 100 µM,> 100 µM
